Measurements from patent US20240245670A1, “DOSING REGIMEN AND PHARMACEUTICAL COMBINATION COMPRISING 3-(1-OXOISOINDOLIN-2-YL)PIPERIDINE-2,6-DIONE DERIVATIVES” (Novartis AG, priority 2018, published 2024).

Columns and labels:
[1] = In vitro metabolism in liver microsomes and hepatocytes across species; type: in vitro ADME
[2] = molecular target: T1, IKZF2 expression in human CD4+FOXP3+ regulatory T cells (Homo sapiens, UniProt Q96SW2+Q9UKS7); assay: PD in MDA-MB231 xenograft hPBMC AdT model: IKZF2 in Tregs by flow cytometry (FIG. 7); type: in vivo
T1 construct: endogenous in cells; host or cells: adoptively transferred human PBMCs (Tregs, tumor-infiltrating lymphocytes) in NSG mice
Protocol: (§1) FIG. 6 is a pictorial representation of the multi-dose PK/PD study design in the human PBMC adoptive transfer mouse model harboring MDA-MB231 xenografts. Fourteen consecutive daily doses of Compound I-57 was administered at 0.3 mg/kg, 1 mg/kg, 3 mg/kg or 30 mg/kg.
FIG. 7 is a graph showing the change in the IKZF2 expression in human CD4+FOXP3+ regulatory T cells isolated from MDA-MB231 tumor xenografts (Tumor) or blood (Periphery) following 14 daily oral doses of 0.3, 1, 3 and 30 mg/kg Compound I-57 administered to the hPBMC AdT model.
(§2) The PK/PD relationship of I-57 was examined in the hPBMC AdT model system. Human PBMCs were adoptively transferred into female NSG mice harboring established MDA-MB231 xenografts (FIG. 6). This model was selected based on the observation that IKZF2 positive Tregs (CD4+FOXP3+) were readily identifiable in peripheral blood and infiltrated in the tumor xenografts.
The impact of I-57 on IKZF2 protein expression in human Tregs in the periphery and infiltrated in MDA-MB231 xenografts was assessed via flow cytometry at multiple time points after the last I-57 dose. […] Maximum effects were generally observed 4-16 h post dose. At a given dose level, the magnitude and duration of IKZF2 reduction in Tregs was generally consistent across tissues (tumor, spleen and blood).
(§3) Based on the data from this hPBMC AdT mouse model, unbound I-57 (73% percent plasma binding in the mouse) exposures (AUCinf) of 7, 30, 157 and 3474 ng*h/mL are required to achieve the reduction of IKZF2 positivity (via flow cytometry) in tumor Tregs by 31, 43, 56, and 75%, respectively. The relationship between the magnitude and duration of I-57-mediated IKZF2 degradation and subsequent modulation of therapeutically relevant downstream biology is not yet well understood.

[3] = molecular target: T2, FIZ1 (Homo sapiens, UniProt Q96SL8+Q96SW2); assay: Whole cell proteomic analysis in 293T cells and subsequent analyses; type: cell-based
T2 construct: endogenous in cells; host or cells: 293T
Protocol: Other potential degradation targets of I-57 were evaluated in 293T cells using whole cell proteomic analysis. […] Subsequent analyses have confirmed that FIZ1 is degraded by about 50% at a 10 μM concentration of I-57 ([I-57 Investigator's Brochure]). […] FIZ1 is expressed in the neural retina where it transcriptionally represses the differentiation of photoreceptors. FIZ1 is also expressed in non-ocular tissues with unknown function.

[4] = PK in repeated oral dose study, MDA-MB231 xenograft human PBMC adoptive transfer mouse model (Table 14); type: in vivo; conditions: for AUCinf (unbound) / Cmax (unbound): mouse, unbound (73% PPB in mouse)
Protocol: as §1, §2
Mice were administered I-57 daily for 14 consecutive days at the doses shown. Longitudinal I-57 plasma concentrations were assessed (Table 14).
as §3

[5] = molecular target: T3, rat IKZF2 (Rattus norvegicus, UniProt A0A0G2JVA9); assay: IKZF2 degradation, species relevance (rat)
T3 construct: assessed in primary PBMCs obtained from rabbit, dog, pig, cynomolgus monkey, and human, and in primary splenocytes of mouse and rat; endogenous in cells; host or cells: primary rat splenocytes
Protocol: The starting dose of I-57 selected for this study is supported by 4-week GLP toxicology studies performed in cynomolgus monkeys. […] GLP toxicity studies identified 30 mg/kg as the HNSTD in monkey and supported a starting dose up to 100 mg QD in human (BSA scaled HED and using a safety factor of 6). The selected dose of 20 mg is anticipated to result in a significant but sub-maximal IKZF2 degradation in human PBMCs and TILs (50-90%), based on PK/PD modeling of I-57 exposure and IKZF2 degradation in cynomolgus PBMCs. More IKZF2 degradation may be required to change downstream biology. Therefore, 20 mg is considered safe. Escalation from this starting dose will facilitate the determination of the minimal required dose which provides optimal IKZF2 degradation to impact downstream biological activity.

[6] = system: peripheral T cells; assay: Proliferation of peripheral T cells (Ki67) in KLH/Squalene immunized cynomolgus monkeys (FIG. 9B); type: in vivo, cynomolgus monkey; conditions: 3 mg/kg group
Protocol: FIG. 9B. is a graph showing proliferation of peripheral T cells (Mean+/−SEM, % of predose) upon treatment with 0.1 and 3 mg/kg of Compound I-57 in cynomolgus monkeys.
The PK/PD relationship of I-57 was further examined in cynomolgus monkeys after repeated daily oral doses of 0.1 and 3 mg/kg. In this study, a cohort of animals were initially immunized with an antigen-adjuvant mixture (KLH/Squalene). The experiment was designed to assess the effect of I-57 exposure, and the resulting IKZF2 degradation, on immune response during immunization to test the hypothesis that IKZF2 degradation would result in increased proliferation of stimulated T-cells. In the experiment, daily I-57 oral treatment was initiated 5 days after immunization. An immunization booster dose was administered on day 15. I-57 plasma concentration and IKZF2 expression (as determined by flow cytometry) in FOXP3+ T cells from PBMCs were determined (FIG. 9A and FIG. 9B).
In order to measure the impact of I-57 treatment on the immune response following immunization, serum anti-KLH IG levels were measured longitudinally, and levels of T cell activation were measured in PBMCs by flow cytometry. […] In contrast, the proportion of proliferative peripheral T cells (denoted by Ki67 staining) was increased in the highest dose group (3 mg/kg) in the recall response phase, compared to immunization alone.

[7] = In vivo non-clinical PK / high dose PK and toxicology exposure; conditions: rat; between 3 mg/kg and 300 mg/kg
Protocol: The in vivo non-clinical PK profile of I-57 was investigated in mouse, rat, dog and cynomolgus monkey using I-57 free base. […] After p.o. administration, the absorption of I-57 was rapid with peak blood concentration (Tmax) occurring between 1 and 4 hours. […] In high dose PK and toxicology studies with I-57 the exposures in mouse, rat and monkey increased with dose.

[8] = p.o. 0.3 mg/kg daily, post 1st dose
[9] = p.o. 0.3 mg/kg daily, post 13th dose
[10] = p.o. 1 mg/kg daily, post 1st dose
[11] = p.o. 1 mg/kg daily, post 13th dose
[12] = p.o. 3 mg/kg daily, post 1st dose
[13] = p.o. 3 mg/kg daily, post 13th dose
[14] = p.o. 30 mg/kg daily, post 1st dose
[15] = p.o. 30 mg/kg daily, post 13th dose

T1 sequence (Q9UKS7 whole entry): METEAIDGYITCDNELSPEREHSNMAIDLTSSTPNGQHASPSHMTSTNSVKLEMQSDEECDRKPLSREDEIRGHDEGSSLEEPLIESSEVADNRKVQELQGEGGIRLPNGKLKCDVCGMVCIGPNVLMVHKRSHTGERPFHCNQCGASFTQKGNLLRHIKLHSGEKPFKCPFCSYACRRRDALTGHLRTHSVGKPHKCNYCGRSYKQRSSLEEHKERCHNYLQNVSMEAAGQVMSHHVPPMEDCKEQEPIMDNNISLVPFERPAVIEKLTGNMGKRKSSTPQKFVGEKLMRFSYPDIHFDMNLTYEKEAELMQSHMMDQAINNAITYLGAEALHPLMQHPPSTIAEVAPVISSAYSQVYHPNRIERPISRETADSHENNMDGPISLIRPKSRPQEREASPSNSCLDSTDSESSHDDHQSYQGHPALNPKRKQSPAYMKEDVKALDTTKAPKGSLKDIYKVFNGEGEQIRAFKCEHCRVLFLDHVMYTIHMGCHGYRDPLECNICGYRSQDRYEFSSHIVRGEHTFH
T1 sequence (Q96SW2 whole entry): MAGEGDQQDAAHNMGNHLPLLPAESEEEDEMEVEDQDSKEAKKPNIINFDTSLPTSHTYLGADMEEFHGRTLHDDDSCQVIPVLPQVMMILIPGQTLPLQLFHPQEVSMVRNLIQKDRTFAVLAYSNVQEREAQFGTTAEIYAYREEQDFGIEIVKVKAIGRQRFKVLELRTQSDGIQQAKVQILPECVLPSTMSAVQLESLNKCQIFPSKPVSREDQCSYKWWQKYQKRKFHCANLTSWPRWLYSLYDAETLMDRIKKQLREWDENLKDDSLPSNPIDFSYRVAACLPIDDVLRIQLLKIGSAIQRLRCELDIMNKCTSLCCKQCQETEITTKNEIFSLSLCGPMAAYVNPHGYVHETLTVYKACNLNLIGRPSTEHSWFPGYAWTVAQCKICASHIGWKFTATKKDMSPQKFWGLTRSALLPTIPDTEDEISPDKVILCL
T1 sequence (Q16531 whole entry partner): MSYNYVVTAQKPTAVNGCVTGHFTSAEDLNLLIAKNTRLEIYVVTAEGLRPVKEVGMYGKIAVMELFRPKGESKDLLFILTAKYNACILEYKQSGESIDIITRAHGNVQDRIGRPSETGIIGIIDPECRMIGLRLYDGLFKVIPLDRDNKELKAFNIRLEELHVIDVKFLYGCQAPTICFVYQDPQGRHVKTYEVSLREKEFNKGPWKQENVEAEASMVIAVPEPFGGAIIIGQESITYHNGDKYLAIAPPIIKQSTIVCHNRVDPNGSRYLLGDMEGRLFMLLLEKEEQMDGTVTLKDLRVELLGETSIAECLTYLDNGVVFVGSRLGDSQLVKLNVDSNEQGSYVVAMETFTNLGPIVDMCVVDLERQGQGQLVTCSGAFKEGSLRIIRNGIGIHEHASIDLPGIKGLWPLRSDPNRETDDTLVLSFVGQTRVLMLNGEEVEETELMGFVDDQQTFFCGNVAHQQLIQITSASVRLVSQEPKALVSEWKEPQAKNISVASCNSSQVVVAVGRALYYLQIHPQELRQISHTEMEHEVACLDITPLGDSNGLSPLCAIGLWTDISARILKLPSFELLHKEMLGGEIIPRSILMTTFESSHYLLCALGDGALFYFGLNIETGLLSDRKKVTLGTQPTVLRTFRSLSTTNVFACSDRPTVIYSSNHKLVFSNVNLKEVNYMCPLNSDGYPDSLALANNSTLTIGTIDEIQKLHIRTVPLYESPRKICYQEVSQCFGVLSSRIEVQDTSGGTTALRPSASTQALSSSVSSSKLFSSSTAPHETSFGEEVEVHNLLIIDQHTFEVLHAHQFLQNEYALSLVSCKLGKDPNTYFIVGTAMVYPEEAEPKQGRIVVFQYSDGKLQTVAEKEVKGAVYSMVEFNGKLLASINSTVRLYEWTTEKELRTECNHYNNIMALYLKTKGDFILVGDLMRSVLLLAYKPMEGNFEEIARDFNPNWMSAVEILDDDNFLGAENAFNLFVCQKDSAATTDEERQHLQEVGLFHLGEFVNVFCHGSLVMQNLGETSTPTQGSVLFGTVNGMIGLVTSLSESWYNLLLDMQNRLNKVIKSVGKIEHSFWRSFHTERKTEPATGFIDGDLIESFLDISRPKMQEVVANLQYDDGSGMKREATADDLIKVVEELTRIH
T2 sequence (Q96SL8 whole entry): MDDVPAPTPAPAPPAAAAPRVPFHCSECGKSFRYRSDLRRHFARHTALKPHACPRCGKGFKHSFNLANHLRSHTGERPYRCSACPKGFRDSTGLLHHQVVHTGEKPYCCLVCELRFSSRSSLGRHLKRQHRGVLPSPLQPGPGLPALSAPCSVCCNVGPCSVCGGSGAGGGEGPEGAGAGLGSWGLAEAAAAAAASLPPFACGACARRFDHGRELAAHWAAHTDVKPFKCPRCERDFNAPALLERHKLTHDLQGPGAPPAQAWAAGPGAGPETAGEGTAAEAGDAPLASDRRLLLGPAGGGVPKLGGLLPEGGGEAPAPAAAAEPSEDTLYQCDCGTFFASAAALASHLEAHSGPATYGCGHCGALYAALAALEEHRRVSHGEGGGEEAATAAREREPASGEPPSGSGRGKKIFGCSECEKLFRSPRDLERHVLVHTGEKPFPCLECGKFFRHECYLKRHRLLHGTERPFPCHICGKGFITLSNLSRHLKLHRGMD
T2 sequence (Q96SW2 whole entry): as the sequence (Q96SW2 whole entry) above
T2 sequence (Q16531 whole entry partner): as the sequence (Q16531 whole entry partner) above
T3 sequence (A0A0G2JVA9 1-467): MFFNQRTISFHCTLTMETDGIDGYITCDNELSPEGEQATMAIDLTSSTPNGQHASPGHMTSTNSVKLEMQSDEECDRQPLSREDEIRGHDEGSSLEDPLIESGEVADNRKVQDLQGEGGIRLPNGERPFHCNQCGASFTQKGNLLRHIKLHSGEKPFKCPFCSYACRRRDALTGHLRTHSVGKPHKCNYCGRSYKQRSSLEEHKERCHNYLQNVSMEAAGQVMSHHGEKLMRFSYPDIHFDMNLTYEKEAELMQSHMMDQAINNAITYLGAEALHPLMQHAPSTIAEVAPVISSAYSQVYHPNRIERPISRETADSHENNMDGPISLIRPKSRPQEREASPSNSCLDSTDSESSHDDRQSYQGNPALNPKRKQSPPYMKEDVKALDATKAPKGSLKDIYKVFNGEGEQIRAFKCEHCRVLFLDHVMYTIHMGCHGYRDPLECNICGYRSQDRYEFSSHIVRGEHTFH
T3 sequence (Q56AP7 whole entry partner): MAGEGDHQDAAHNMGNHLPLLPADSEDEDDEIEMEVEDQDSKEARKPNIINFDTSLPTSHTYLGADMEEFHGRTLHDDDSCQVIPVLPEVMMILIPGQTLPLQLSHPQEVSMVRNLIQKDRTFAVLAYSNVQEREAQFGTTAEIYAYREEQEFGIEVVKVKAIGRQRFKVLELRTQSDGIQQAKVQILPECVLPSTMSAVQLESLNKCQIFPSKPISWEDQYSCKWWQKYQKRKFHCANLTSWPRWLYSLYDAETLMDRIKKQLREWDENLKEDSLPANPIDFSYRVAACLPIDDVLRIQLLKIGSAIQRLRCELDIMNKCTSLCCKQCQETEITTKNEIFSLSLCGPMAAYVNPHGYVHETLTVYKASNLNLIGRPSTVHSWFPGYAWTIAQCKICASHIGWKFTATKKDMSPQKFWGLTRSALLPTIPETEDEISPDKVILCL

Q: With `O=C1CCC(N2Cc3cc(C4CCN(Cc5ccccc5)CC4)ccc3C2=O)C(=O)N1` (stereo not shown) [Compound I-57, 3-(5-(1-benzylpiperidin-4-yl)-1-oxoisoindolin-2-yl)piperidine-2,6-dione] as the molecule, how does the metabolic stability [1] read?
A: The metabolic stability was “very stable”.

Q: What about the “time of maximum effects” value ([2]; post dose (after last dose)) of the same molecule?
A: The value was 4 to 16 h.

Q: What about the “IKZF2 degradation (reduction of percentage of IKZF2 positive Tregs)” value ([2]; tumor and peripheral blood, 14 daily oral doses of 0.3, 1, 3 and 30 mg/kg) of the same molecule?
A: The value was “robust dose and exposure-dependent IKZF2 degradation”.

Q: What about the “reduction of IKZF2 positivity in tumor Tregs (flow cytometry)” value (“reduction of IKZF2 positivity” for short) ([2]; unbound AUCinf 7 ng*h/mL) of the same molecule?
A: The value was 31%.

Q: And the “reduction of IKZF2 positivity” value ([2]; unbound AUCinf 30 ng*h/mL)?
A: Its value is 43%.

Q: And the “reduction of IKZF2 positivity” value ([2]; unbound AUCinf 157 ng*h/mL)?
A: Its value is 56%.

Q: What about the “reduction of IKZF2 positivity” value ([2]; unbound AUCinf 3474 ng*h/mL) of the same molecule?
A: Its value is 75%.

Q: What about the FIZ1 degradation ([3]; 10 μM concentration of I-57) of the same molecule?
A: Its FIZ1 degradation is “about 50%”.

Q: And the “FIZ1 degradation (proteomics)” value ([3]; 293T cells, nearly 8000 proteins identified)?
A: The value was “degraded”.

Q: What about the “increase in AUC and Cmax with dose” value ([4]; between 3 and 30 mg/kg, daily oral) of the same molecule?
A: Its value is “over-dose proportional increase”.

Q: And the “increase in overall AUC and Cmax with dose” value ([4]; from 0.3 to 3 mg/kg, daily oral)?
A: Its value is “dose proportional increase”.

Q: What about the “AUCinf (unbound)” value [4, 8] of the same molecule?
A: The value was 7.1 ng·h/mL.

Q: And the “Cmax (unbound)” value [4, 8]?
A: Its value is 2.9 ng/mL.

Q: What about the “AUCinf (unbound)” value [4, 9] of the same molecule?
A: The value was 7.5 ng·h/mL.

Q: What about the “Cmax (unbound)” value [4, 9] of the same molecule?
A: Its value is 1.1 ng/mL.

Q: And the “AUCinf (unbound)” value [4, 10]?
A: The value was 30 ng·h/mL.

Q: And the “Cmax (unbound)” value [4, 10]?
A: Its value is 8.8 ng/mL.

Q: What about the “AUCinf (unbound)” value [4, 11] of the same molecule?
A: The value was 20 ng·h/mL.

Q: And the “Cmax (unbound)” value [4, 11]?
A: Its value is 4.6 ng/mL.

Q: And the “AUCinf (unbound)” value [4, 12]?
A: Its value is 157 ng·h/mL.

Q: What about the “Cmax (unbound)” value [4, 12] of the same molecule?
A: Its value is 53 ng/mL.

Q: And the “AUCinf (unbound)” value [4, 13]?
A: The value was 92 ng·h/mL.

Q: What about the “Cmax (unbound)” value [4, 13] of the same molecule?
A: The value was 27 ng/mL.

Q: And the “AUCinf (unbound)” value [4, 14]?
A: Its value is 3470 ng·h/mL.

Q: And the “Cmax (unbound)” value [4, 14]?
A: Its value is 1250 ng/mL.

Q: What about the “AUCinf (unbound)” value [4, 15] of the same molecule?
A: The value was 4270 ng·h/mL.

Q: And the “Cmax (unbound)” value [4, 15]?
A: Its value is 1300 ng/mL.

Q: And the “unbound exposure (AUCinf)” value ([4]; required for reduction of IKZF2 positivity in tumor Tregs by 31%)?
A: The value was 7 ng·h/mL.

Q: What about the “unbound exposure (AUCinf)” value ([4]; required for reduction of IKZF2 positivity in tumor Tregs by 43%) of the same molecule?
A: The value was 30 ng·h/mL.

Q: What about the “unbound exposure (AUCinf)” value ([4]; required for reduction of IKZF2 positivity in tumor Tregs by 56%) of the same molecule?
A: The value was 157 ng·h/mL.

Q: What about the “unbound exposure (AUCinf)” value ([4]; required for reduction of IKZF2 positivity in tumor Tregs by 75%) of the same molecule?
A: Its value is 3474 ng·h/mL.

Q: What about the “degradation of rat IKZF2” value [5] of the same molecule?
A: Its value is “not rat”.

Q: What about the “levels of Ki67 until the end of the study” value [6] of the same molecule?
A: Its value is “remained elevated”.

Q: And the “increase in AUC with dose” value [7]?
A: The value was “roughly dose proportional”.
